Test results reported in PMC5402281, “Functional, thermodynamics, structural and biological studies of in silico-identified inhibitors of Mycobacterium tuberculosis enoyl-ACP(CoA) reductase enzyme” (Scientific Reports, 2017).

Legend:
[1] = assay type: physicochemical
Protocol: (§1) An HPLC equipped with a quaternary pump, DAD detector, degasser, column oven and an automatic injection system was used in this set of experiments (Thermo® Scientific, Sunnyvale, USA). Stock standard solutions (1 M) of Labio_16 and Labio_17 were prepared by diluting each standard in DMSO. Standard solutions were prepared by diluting the stock solution in fish water, yielding final concentrations of 0.625, 1.25, 2.50, 5.0 and 10.0 μM for Labio_16; and 0.625, 1.25, 2.50, 5.0, 10.0 and 20 μM for Labio_17 in a final volume of 0.5 mL.
(§2) Chromatographic separations were carried out using a Nucleodur C-18 column at 20 °C. The mobile phase was a 20:80% mixture of 0.1% glacial acetic acid and acetonitrile:methanol 1:1 (v/v) for Labio_16, and a mixture of 20:80% of 20 mM of ammonium acetate and acetonitrile:methanol 1:1 (v/v) for Labio_17. A flow rate of 1.5 mL min^−1 was employed in isocratic mode, with run time of 7 minutes for Labio_16 and 12 minutes for Labio_17. The DAD detector was set at 300 nm and a full scan was continuously performed. The calibration curve for both analytes presented a correlation coefficient above 0.99.

[2] = system: Zebrafish embryos; settings: zebrafish (Danio rerio)
Protocol: as §1, §2

[3] = system: Zebrafish embryos; test: Zebrafish embryo toxicity: survival, hatching, heart frequency; assay type: in vivo, Danio rerio; settings: for cardiotoxicity in the Zebrafish model: overall conclusion; for survival rate: treated from 2 hpf for 5 days, vs controls, Kaplan Meier
Protocol: Wild-type Zebrafish embryos were obtained from natural mating of adult Danio rerio bred[25] and maintained in an automated re-circulating tank system (Tecniplast, Italy). At 2 hpf (hours post fertilization) embryos were treated with different concentrations of compounds Labio_16 and Labio_17. Both compounds were diluted in DMSO for stock solutions of […] and diluted in fish water (Reverse Osmosis equilibrated with Instant Ocean Salt) to final concentrations of 1.0 μM, 3.5 μM and 7.0 μM (compound Labio_16) and 0.1 μM, 1.0 μM, 7.5 μM and 13.0 μM (compound Labio_17). Since both compounds were diluted first in DMSO, there were two control groups for each treatment, one only with fish water and the other one with the highest concentration of DMSO used in the treatments (0.035% for Labio_16 treatment and 0.065% for Labio_17 treatment).
Embryos were maintained in a 96 well plate during the 5 days of treatment inside an incubator with light-dark cycle of 14–10 hours and controlled temperature (28 °C)[25]. The solution pH and conductivity were monitored. Survival and hatching efficiency were accompanied under a stereomicroscope (OlympusSZ4045) every day, as well as developmental toxicity. Data for survival evaluation were analysed by Kaplan Meier survival test.
At 2 dpf (days post fertilization) and 5 dpf embryos heart frequency were quantified. For this, a single embryo per larvae was placed under a stereomicroscope (OlympusSZ4045) in petri-dishes with system water and their heart rate was monitored for 60 seconds by a blind experimenter (N = 10 in triplicates)[25][26]. For all procedures, temperature was kept constant at 28 °C. Data were analysed using One-way ANOVA, followed by Tukey multiple comparisons test.

SMILES	decrease in compound concentration in stability test [1]	decrease of compound in in vivo assay medium [2]	heart frequency at 5 dpf ([3]; 3.5 μM and 7.0 μM against DMSO control)	hatching efficiency ([3]; 1.0, 3.5, 7.0 μM vs controls)	heart frequency at 2 dpf ([3]; all groups, one-way ANOVA)	cardiotoxicity in the Zebrafish model [3]	survival rate [3]	heart frequency at 5 dpf ([3]; 0.1 μM and 1.0 μM against H2O control)	heart frequency at 5 dpf ([3]; 1.0 μM compared to DMSO control)	hatching efficiency ([3]; two highest concentrations, 13.0 μM and 7.5 μM)
Cc1ccccc1OCc1nc(-c2ccc(NC(=O)c3cccs3)cc2)no1 [Labio_16]	21%	55 ± 2%	a decrease in the heart rate	No difference	no difference	no cardiotoxicity	statistical difference			
CCOC(=O)c1ccc2nc(C)cc(Nc3ccc(N4CCCCC4)cc3)c2c1 [Labio_17]	21%	55 ± 2%				signs of cardiotoxicity	dose-dependent statistical difference	no difference	no difference	delayed hatching efficiency
